Assay results published in the NIST ThermoML archive (doi:10.1021/je900974u).
Numbers after ± are expanded uncertainties.

Columns and labels:
[1] = Crystal
[2] = molar heat capacity at constant pressure; settings: 101.33 kPa, Liquid, Vacuum adiabatic calorimetry
[3] = Molar enthalpy of transition or fusion; settings: Crystal; Adiabatic calorimetry

CCCCn1cc[n+](C)c1.N#CN=C=[N-] [1-butyl-3-methylimidazolium dicyanamide]
Settings	Molar enthalpy of transition or fusion [kcal/mol]	Triple point temperature [K]
[1]	–	270.83 ± 0.6
[3]	4.254 ± 0.0239	–

[2]
Settings	molar heat capacity at constant pressure [J/K/mol]
235.8 K	355.9 ± 0.6
237.81 K	356.5 ± 0.6
239.87 K	356.9 ± 0.6
241.93 K	357.5 ± 0.6
243.99 K	357.9 ± 0.6
246.05 K	358.6 ± 0.6
248.11 K	359.2 ± 0.6
249.31 K	359.4 ± 0.6
250.17 K	359.8 ± 0.6
251.33 K	360.2 ± 0.6
252.23 K	360.4 ± 0.6
253.39 K	360.8 ± 0.6
254.29 K	360.8 ± 0.6
255.46 K	361.2 ± 0.6
256.35 K	361.4 ± 0.6
257.53 K	362 ± 0.6
258.41 K	362 ± 0.6
259.59 K	362.7 ± 0.6
260.48 K	362.7 ± 0.6
261.66 K	363.3 ± 0.6
262.54 K	363.5 ± 0.6
263.72 K	363.9 ± 0.6
264.6 K	364.1 ± 0.6
265.79 K	364.7 ± 0.6
266.66 K	364.7 ± 0.6
267.86 K	365.3 ± 0.6
268.72 K	365.3 ± 0.6
269.92 K	365.9 ± 0.6
270.79 K	366.1 ± 0.6
271.99 K	366.5 ± 0.6
272.85 K	366.8 ± 0.6
274.05 K	367.2 ± 0.6
274.91 K	367.4 ± 0.6
276.12 K	368 ± 0.6
278.19 K	368.6 ± 0.6
280.25 K	369.4 ± 0.6
282.32 K	370 ± 0.6
284.39 K	370.9 ± 0.6
286.45 K	371.5 ± 0.6
288.52 K	372.3 ± 0.6
290.59 K	372.9 ± 0.6
292.65 K	373.7 ± 0.6
294.72 K	374.5 ± 0.6
296.78 K	375.4 ± 0.6
298.85 K	376.2 ± 0.6
300.92 K	376.8 ± 0.6
302.98 K	377.6 ± 0.6
305.05 K	378.4 ± 0.6
307.12 K	379.1 ± 0.6
309.18 K	379.9 ± 0.6
311.25 K	380.7 ± 0.6
313.32 K	381.5 ± 0.6
315.39 K	382.3 ± 0.6
317.46 K	382.9 ± 0.6
319.53 K	383.8 ± 0.6
321.6 K	384.8 ± 0.6
323.67 K	385.6 ± 0.6
325.73 K	386.4 ± 0.6
327.8 K	387 ± 0.6
329.87 K	388.1 ± 0.6
331.94 K	388.9 ± 0.6
334.01 K	389.7 ± 0.6
336.08 K	390.5 ± 0.6
338.15 K	391.1 ± 0.6
340.22 K	392 ± 0.6
342.29 K	392.8 ± 0.6
344.36 K	393.6 ± 0.6
346.43 K	394.4 ± 0.6
348.5 K	395.5 ± 0.6
350.57 K	396.3 ± 0.6
352.65 K	397.1 ± 0.6
354.72 K	397.9 ± 0.6
356.79 K	398.9 ± 0.6
358.86 K	399.6 ± 0.6
360.93 K	400.6 ± 0.6
363 K	401.4 ± 0.6
365.07 K	402.2 ± 0.6
367.14 K	403.2 ± 0.6

CCCCCCCCCCCCCCn1cc[n+](C)c1.O=S(=O)([N-]S(=O)(=O)C(F)(F)F)C(F)(F)F
Settings	Molar enthalpy of transition or fusion [kcal/mol]	Triple point temperature [K]
[1]	–	308.72 ± 0.6
[3]	9.536 ± 0.0239	–

[2]
Settings	molar heat capacity at constant pressure [J/K/mol]
309.98 K	896.3 ± 1.1
310.38 K	898 ± 1.1
311.13 K	898.7 ± 1.1
312.28 K	899.5 ± 1.1
312.7 K	900.9 ± 1.1
313.43 K	900.5 ± 1.1
314.58 K	902.3 ± 1.1
315.01 K	903.4 ± 1.1
315.73 K	903.4 ± 1.1
316.88 K	904.2 ± 1.1
317.32 K	905.3 ± 1.1
318.04 K	904 ± 1.1
319.19 K	906.1 ± 1.1
319.63 K	907.1 ± 1.1
320.34 K	907.5 ± 1.1
321.49 K	908.6 ± 1.1
321.94 K	909.6 ± 1.1
322.64 K	909.2 ± 1.1
323.79 K	910.6 ± 1.1
324.94 K	913.1 ± 1.1
326.1 K	913.5 ± 1.1
327.25 K	914.4 ± 1.1
328.4 K	915.1 ± 1.1
329.55 K	915.9 ± 1.1
330.69 K	918.6 ± 1.1
331.84 K	918.3 ± 1.1
332.99 K	919.1 ± 1.1
334.14 K	920.6 ± 1.1
335.29 K	922.4 ± 1.1
336.45 K	923 ± 1.1
337.6 K	924.6 ± 1.1
338.75 K	925.5 ± 1.1
339.89 K	926.2 ± 1.1
341.04 K	927.4 ± 1.1
342.19 K	927.9 ± 1.1
343.33 K	929.9 ± 1.1
344.48 K	930.4 ± 1.1
345.62 K	931.8 ± 1.1
346.77 K	933.1 ± 1.1
347.91 K	933.9 ± 1.1
349.06 K	935.2 ± 1.1
350.2 K	936.7 ± 1.1
351.91 K	939.3 ± 1.1
354.21 K	941.3 ± 1.1
356.51 K	943.4 ± 1.1
358.83 K	945.8 ± 1.1
361.14 K	947.9 ± 1.1
363.45 K	949.8 ± 1.2
365.76 K	951.8 ± 1.2
368.07 K	953.3 ± 1.2
